{"source": "paper PMC6627331", "about": "“Identification of Small Molecule Inhibitors of Staphylococcus aureus RnpA” (Antibiotics, 2019)", "key": {"[1]": {"target": "T1, S. aureus RNase P (RnpA + rnpB) (Staphylococcus aureus, UniProt P0A0H5)", "T1 construct": "hexahistidine (His6) (N); made in house; host or cells: E. coli BL21 (DE3), plasmid pEXP5-nt", "T1 sequence (P0A0H5 1-117)": "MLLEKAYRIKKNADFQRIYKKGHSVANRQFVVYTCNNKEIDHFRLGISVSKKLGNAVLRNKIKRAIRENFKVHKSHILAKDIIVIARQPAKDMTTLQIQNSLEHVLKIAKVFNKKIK", "assay": "RnpA-dependent RNase P in vitro ptRNA^Tyr processing assay", "type": "biochemical", "conditions": "in vitro ptRNA^Tyr processing; read-out: Processing IC50", "experimental": "S. aureus RNase P activity assays were performed according to conditions described previously. Briefly, ptRNA^Tyr and rnpB RNA species were first denatured by heating to 95 °C for 5 min then slow cooled to room temperature. RNase P was reconstituted by mixing an equal molar ratio of rnpB and RnpA for 15 min at 37 °C. Precursor tRNA processing inhibition reactions were performed by mixing 1.25 pmol of reconstituted RNase P (RnpA + rnpB) with an equal volume of 2× low salt buffer (50 mM Tris-HCl pH 8.0, 5 mM MgCl2) in the presence of DMSO (negative control) or the indicated compound (≤500 µM) and incubated for 5 min at 37 °C. 5 pmol ptRNA^Tyr was added and the mixture was incubated at 37 °C 15 min. Reactions were stopped by adding 2× RNA loading dye and heating at 65 °C for 10 min. Each sample was electrophoresed in a 7 M urea/8% polyacrylamide gel then stained with ethidium bromide. The Biorad EZ Gel Doc imaging system was used to visualize the RNA and relative abundance of the mature tRNA^Tyr band (% processing) in the negative control or in samples containing the indicated compounds and analyzed using Biorad Image Lab densitometry software. The inhibitory activity of the indicated compounds were calculated as a % inhibition using the following equation: […].\nTo assess IC50, % RNase P processing inhibition was plotted against compound concentration and a linear best fit equation was generated to calculate the IC50."}, "[2]": {"system": "norA mRNA in S. aureus UAMS-1 cells", "assay": "Cellular norA mRNA turnover (qRT-PCR after rifampin arrest)", "type": "cell-based, Staphylococcus aureus", "conditions": "0.5× MIC for 30 min; 5 min post-transcriptional arrest; mock 99%", "experimental": "(§1) S. aureus mRNA half-life determinations were performed as previously described. […] Rifampin (Sigma-Aldrich) was added to the culture at a final concentration of 200 μg·mL^−1 to inhibit de novo transcript synthesis. Half of the culture was immediately removed and combined with an equal volume of ice cold acetone:ethanol (1:1 v/v). The remaining culture was returned to the shaking 37 °C incubator for an additional 5 min and then subsequently combined with an equal volume of ice cold acetone:ethanol (1:1 v/v) and stored at −80 °C until processing, as described below.\nFor total bacterial RNA isolation, cell suspensions were thawed on ice, centrifuged at 3000 rpm for 10 min at 4 °C, the resulting cell pellets were resuspended in ice-cold TE buffer (10 mM Tris-HCl, pH 8.0, 1 mM EDTA), and transferred into a FastPrep bead beater tube containing 0.1 mm silica spheres (MP Biomedicals; Santa Ana, CA, USA). Mixtures were homogenized at 5 m·s^−1 for 20 s, rested on ice for 5 min, and then homogenized again at 4.5 m·s^−1 in a FastPrep-24 instrument. Cellular debris were collected by centrifugation at 13,000 rpm for 15 min at 4 °C, whereas bacterial RNA was isolated from the supernatant using Qiagen RNeasy Mini Kits and miRNeasy Mini Kits were used to isolate total bacterial RNA, following the manufacturer’s instructions. RNA quantity and quality were measured using a NanoDrop 2000 spectrophotometer (ThermoFisher Scientific). For qRT-PCR, 1 μg of total bacterial RNA was treated with 3 units of DNase I (Ambion; Carlsbad, CA, USA) for 1 h at 37 °C to remove any DNA contaminants. RNA cleanup was performed using the Qiagen RNeasy Mini Kit. Subsequently, the BioRad iScript cDNA Synthesis Kit (Hercules, CA, USA) was used to convert 200 ng of RNA into cDNA, which was amplified using the BioRad iQ SYBR Green Supermix per the manufacturer’s instructions and fluorescence was read on the Biorad CFX 96 Connect machine. Transcript levels were compared to the internal control 16S rRNA (ΔΔCt method), and plotted as a fold change compared to control. The following primer pairs were used in this study for qRT-PCR: norA forward—[…] and norA reverse-[…] CTAAG; -15 ptRNA^Tyr forward-[…] and tRNA^Tyr reverse-TGGTG […]; 16S rRNA forward-[…] and 16S rRNA reverse-[…]."}, "[3]": {"system": "all cellular mRNA species of S. aureus UAMS-1", "assay": "Global cellular mRNA turnover (Affymetrix GeneChip)", "type": "cell-based, Staphylococcus aureus", "conditions": "0.5× MIC; mock (DMSO) 84.8%", "experimental": "as §1\nBriefly, following the manufacturer’s instructions for prokaryotic arrays, reverse transcription was carried out on 10 µg of total bacterial RNA and control eukaryotic poly(A) RNA (Affymetrix). […] Transcript signal intensity values were read using the Affymetrix GeneChip® Scanner, and intensity values for each ORF and intergenic region were averaged among the biological replicates (n ≥ 2). Signals were normalized to the control poly(A) cDNA intensity values using GeneSpring 7.2 software (Agilent Technologies, Redwood City, CA, USA) and the number of transcripts with a decrease in transcript signal of >2-fold were determined."}, "[4]": {"system": "S. aureus RN4220 pML100::rnpA-KD", "assay": "Cellular RnpA depletion hypersusceptibility growth curve", "type": "cell-based, Staphylococcus aureus", "conditions": "[…] MIC JC2 or 0.5× MIC RNPA2000", "experimental": "100 μL of each culture was transferred to a 96 well flat bottom plate in duplicate and growth monitored by OD600 reading every 30 min over 8 h at 37 °C. Hypersusceptibility growth curves were averaged from two biological replicates in technical duplicate."}, "S. aureus USA300": {"system": "S. aureus USA300", "assay": "MIC against clinical strain USA300", "type": "cell-based, Staphylococcus aureus"}}, "note": "Like-named read-outs stand apart in the source and are kept apart here."}
{"smiles": "CC1CCCCN1C(=O)Nc1cc(Cl)cc(Cl)c1", "note": "(stereo not drawn) [JC2]", "values": [{"measurement": "IC50", "setting": "[1]", "value": 200, "unit": "µM"}, {"measurement": "norA mRNA degradation", "setting": "[2]", "value": 27, "unit": "%"}, {"measurement": "transcript species with a half-life of ≤5 min", "setting": "[3]", "value": 51.6, "unit": "%"}, {"measurement": "growth of RnpA-depleted cells (RnpA-KD) versus vector cells", "setting": "[4]", "value": "displayed a growth defect"}, {"measurement": "MIC", "setting": "S. aureus USA300", "value": 0.5, "unit": "µg/mL"}, {"measurement": "MIC", "setting": "S. aureus USA300; Staphylococcus aureus, read-out: MIC", "value": 0.5, "unit": "µg/mL"}]}
